According to ChEMBL document CHEMBL3112465 (Eur J Med Chem, 2014):
Active and inactive are the calls of the source. The rule behind the calls is not given here.

Tests used:
[1] = Plasma concentration in Wistar rat lambda carrageenan-induced pleurisy model at 10 mg/kg, ip pretreated for 30 mins followed by lambda carrageenan-challenge measured after 4 hrs by SPE-HPLC analysis; type: ADME, organism-based; design: dose 10 mg/kg, route intraperitoneal
Rattus norvegicus [2] = assay: Antiinflammatory activity in Wistar rat lambda carrageenan-induced pleurisy model assessed as decrease in number of leukocytes in pleural space at 10 mg/kg, ip pretreated for 30 mins followed by lambda carrageenan-challenge measured after 4 hrs relative to control; type: functional; design: scale not given: the % may be the effect or the level left
Rattus norvegicus [3] = assay: Antiinflammatory activity in Wistar rat lambda carrageenan-induced pleurisy model assessed as decrease in number of leukocytes in pleural space at 20 mg/kg, ip pretreated for 30 mins followed by lambda carrageenan-challenge measured after 4 hrs relative to control; type: functional; design: scale not given: the % may be the effect or the level left
[4] = Plasma concentration in Wistar rat lambda carrageenan-induced pleurisy model at 20 mg/kg, ip pretreated for 30 mins followed by lambda carrageenan-challenge measured after 4 hrs by SPE-HPLC analysis; type: ADME, organism-based; design: dose 20 mg/kg, route intraperitoneal
Rattus norvegicus [5] = assay: Antiinflammatory activity in Wistar rat lambda carrageenan-induced pleurisy model assessed as decrease in number of leukocytes in pleural space at 5 mg/kg, ip pretreated for 30 mins followed by lambda carrageenan-challenge measured after 4 hrs relative to control; type: functional; design: scale not given: the % may be the effect or the level left
[6] = Plasma concentration in Wistar rat lambda carrageenan-induced pleurisy model at 5 mg/kg, ip pretreated for 30 mins followed by lambda carrageenan-challenge measured after 4 hrs by SPE-HPLC analysis; type: ADME, organism-based; design: dose 5 mg/kg, route intraperitoneal
[7] = biological target: Prostaglandin G/H synthase 1 (Homo sapiens, UniProt P23219); design: species or system Blood
[8] = biological target: T1, Prostaglandin G/H synthase 2 (Homo sapiens, UniProt P35354); design: species or system Blood
T1 sequence (P35354 whole entry): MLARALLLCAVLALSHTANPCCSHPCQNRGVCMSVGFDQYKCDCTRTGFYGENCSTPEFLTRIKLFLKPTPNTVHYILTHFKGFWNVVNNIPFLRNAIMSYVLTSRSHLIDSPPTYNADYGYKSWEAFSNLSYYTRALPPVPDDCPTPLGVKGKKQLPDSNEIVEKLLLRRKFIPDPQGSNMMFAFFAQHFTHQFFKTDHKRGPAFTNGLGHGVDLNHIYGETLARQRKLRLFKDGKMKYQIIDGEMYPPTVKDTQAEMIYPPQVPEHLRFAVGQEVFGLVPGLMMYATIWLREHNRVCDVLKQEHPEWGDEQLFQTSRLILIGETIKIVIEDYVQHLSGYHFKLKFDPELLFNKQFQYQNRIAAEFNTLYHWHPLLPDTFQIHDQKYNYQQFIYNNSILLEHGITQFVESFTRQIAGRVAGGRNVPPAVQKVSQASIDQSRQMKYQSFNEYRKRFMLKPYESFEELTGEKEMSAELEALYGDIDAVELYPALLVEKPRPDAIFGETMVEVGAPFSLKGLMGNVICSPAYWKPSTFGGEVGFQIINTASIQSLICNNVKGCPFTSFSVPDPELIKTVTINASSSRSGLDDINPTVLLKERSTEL

Rattus norvegicus [9] = assay: Antiinflammatory activity in Wistar rat lambda carrageenan-induced pleurisy model assessed as decrease in exudate volume at 5 mg/kg, ip pretreated for 30 mins followed by lambda carrageenan-challenge measured after 4 hrs relative to control; type: functional; conditions: route intraperitoneal
Rattus norvegicus [10] = assay: Antiinflammatory activity in Wistar rat lambda carrageenan-induced pleurisy model assessed as decrease in exudate volume at 20 mg/kg, ip pretreated for 30 mins followed by lambda carrageenan-challenge measured after 4 hrs relative to control; type: functional; conditions: route intraperitoneal
Rattus norvegicus [11] = assay: Antiinflammatory activity in Wistar rat lambda carrageenan-induced pleurisy model assessed as decrease in exudate volume at 10 mg/kg, ip pretreated for 30 mins followed by lambda carrageenan-challenge measured after 4 hrs relative to control; type: functional; conditions: route intraperitoneal
[12] = Retention time of the compound by chromatographic analysis; type: physicochemical

Chain of Prostaglandin G/H synthase 1 (P23219 whole entry): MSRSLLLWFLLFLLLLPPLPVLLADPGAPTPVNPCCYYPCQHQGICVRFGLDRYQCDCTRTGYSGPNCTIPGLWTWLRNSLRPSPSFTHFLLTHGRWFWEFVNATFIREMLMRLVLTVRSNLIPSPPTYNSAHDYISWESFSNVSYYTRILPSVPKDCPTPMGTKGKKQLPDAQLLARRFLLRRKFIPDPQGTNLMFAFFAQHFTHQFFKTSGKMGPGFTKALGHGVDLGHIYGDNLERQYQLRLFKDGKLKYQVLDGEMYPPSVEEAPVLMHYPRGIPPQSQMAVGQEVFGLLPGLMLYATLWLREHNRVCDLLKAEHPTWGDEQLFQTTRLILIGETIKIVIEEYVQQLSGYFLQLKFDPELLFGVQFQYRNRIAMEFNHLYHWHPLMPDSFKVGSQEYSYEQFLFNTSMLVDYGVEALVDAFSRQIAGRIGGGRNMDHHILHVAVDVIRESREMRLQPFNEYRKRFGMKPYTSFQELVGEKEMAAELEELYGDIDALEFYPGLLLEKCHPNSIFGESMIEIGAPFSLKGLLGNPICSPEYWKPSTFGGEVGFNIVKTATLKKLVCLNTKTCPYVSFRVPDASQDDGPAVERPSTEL

## Cc1cccc(Nc2cnccc2NS(=O)(=O)C(F)(F)F)c1
[1]
  concentration at 4 h: 200 ng/mL
Rattus norvegicus [2]; route intraperitoneal
  Activity: 24.98%
Rattus norvegicus [3]; route intraperitoneal
  Activity: 50.18%
[4]
  concentration at 4 h: 410 ng/mL
Rattus norvegicus [5]; route intraperitoneal
  Activity: 17.07%
[6]
  concentration at 4 h: 100 ng/mL

## CS(=O)(=O)Nc1ccncc1Nc1ccc(F)cc1
[7]
  IC50: 2090 nM
[8]
  IC50: 20700 nM

## O=S(=O)(C1CC1)N(c1ccncc1Nc1ccccc1)S(=O)(=O)C1CC1
[7]
  IC50: 19600 nM
[8]
  IC50: 56800 nM

## O=S(=O)(Nc1ccncc1Nc1cccc(Cl)c1)C(F)(F)F
[1]
  concentration at 4 h: 680 ng/mL
Rattus norvegicus [2]
  Activity: inactive
Rattus norvegicus [3]; route intraperitoneal
  Activity: 16.41%
[4]
  concentration at 4 h: 1400 ng/mL
Rattus norvegicus [5]
  Activity: inactive
[6]
  concentration at 4 h: 560 ng/mL

## CS(=O)(=O)Nc1ccncc1Nc1cccc(Cl)c1
[1]
  concentration at 4 h: 690 ng/mL
Rattus norvegicus [2]
  Activity: inactive
Rattus norvegicus [3]
  Activity: inactive
[4]
  concentration at 4 h: 1860 ng/mL
Rattus norvegicus [5]
  Activity: inactive
[6]
  concentration at 4 h: 260 ng/mL

## O=S(=O)(Nc1ccncc1Nc1ccc(F)c(Br)c1)C(F)(F)F
[1]
  concentration at 4 h: 34100 ng/mL
Rattus norvegicus [9]
  inhibition in vivo at 5 mg/kg: 21.9%
Rattus norvegicus [2]; route intraperitoneal
  Activity: 41.22%
Rattus norvegicus [3]; route intraperitoneal
  Activity: 69.78%
Rattus norvegicus [10]
  inhibition in vivo at 20 mg/kg: 66.5%
Rattus norvegicus [11]
  inhibition in vivo at 10 mg/kg: 42.6%
[7]
  IC50: 1350 nM
[4]
  concentration at 4 h: 59100 ng/mL
[8]
  IC50: 2270 nM
Rattus norvegicus [5]; route intraperitoneal
  Activity: 11.13%
[6]
  concentration at 4 h: 11400 ng/mL

## O=S(=O)(Nc1ccncc1Nc1ccc(F)c(Cl)c1)C(F)(F)F
[1]
  concentration at 4 h: 30000 ng/mL
Rattus norvegicus [9]
  inhibition in vivo at 5 mg/kg: 36.6%
Rattus norvegicus [2]; route intraperitoneal
  Activity: 48.23%
Rattus norvegicus [3]; route intraperitoneal
  Activity: 64.71%
Rattus norvegicus [10]
  inhibition in vivo at 20 mg/kg: 73.5%
Rattus norvegicus [11]
  inhibition in vivo at 10 mg/kg: 67.5%
[7]
  IC50: 1740 nM
[4]
  concentration at 4 h: 54600 ng/mL
[8]
  IC50: 1570 nM
Rattus norvegicus [5]; route intraperitoneal
  Activity: 14.74%
[6]
  concentration at 4 h: 13000 ng/mL

## Cc1ccc(Nc2cnccc2NS(C)(=O)=O)cc1C
[7]
  IC50: 3280 nM
[8]
  IC50: 30700 nM

## O=S(=O)(Nc1ccncc1Nc1ccccc1)C(F)(F)F
[1]
  concentration at 4 h: 1540 ng/mL
Rattus norvegicus [9]
  inhibition in vivo at 5 mg/kg: 25.4%
Rattus norvegicus [2]; route intraperitoneal
  Activity: 34.83%
Rattus norvegicus [3]; route intraperitoneal
  Activity: 51.7%
Rattus norvegicus [10]
  inhibition in vivo at 20 mg/kg: 72.2%
Rattus norvegicus [11]
  inhibition in vivo at 10 mg/kg: 55.7%
[4]
  concentration at 4 h: 3620 ng/mL
Rattus norvegicus [5]; route intraperitoneal
  Activity: 24.82%
[6]
  concentration at 4 h: 720 ng/mL

## O=S(=O)(Nc1ccncc1Nc1ccccc1)C1CC1
[7]
  IC50: 3610 nM
[8]
  IC50: 35100 nM

## O=S(=O)(Nc1ccncc1Nc1cccc(Br)c1)C(F)(F)F
[1]
  concentration at 4 h: 430 ng/mL
Rattus norvegicus [2]; route intraperitoneal
  Activity: 27.07%
Rattus norvegicus [3]; route intraperitoneal
  Activity: 28.52%
[12]
  Retention_time: 13.65 min
[4]
  concentration at 4 h: 820 ng/mL
Rattus norvegicus [5]; route intraperitoneal
  Activity: 27.1%
[6]
  concentration at 4 h: 300 ng/mL

## O=S(=O)(Nc1ccncc1Nc1cccc(F)c1)C(F)(F)F
[7]
  IC50: 440 nM
[8]
  IC50: 240 nM

## Cc1ccc(Nc2cnccc2NS(=O)(=O)C(F)(F)F)cc1C
[7]
  IC50: 710 nM
[8]
  IC50: 550 nM

## Cc1ccc(Nc2cnccc2NS(=O)(=O)C(F)(F)F)cc1Br
[1]
  concentration at 4 h: 180 ng/mL
Rattus norvegicus [9]
  inhibition in vivo at 5 mg/kg: 19.4%
Rattus norvegicus [2]; route intraperitoneal
  Activity: 26.24%
Rattus norvegicus [3]; route intraperitoneal
  Activity: 44.06%
Rattus norvegicus [10]
  inhibition in vivo at 20 mg/kg: 71%
Rattus norvegicus [11]
  inhibition in vivo at 10 mg/kg: 57.1%
[7]
  IC50: 1400 nM
[4]
  concentration at 4 h: 920 ng/mL
[8]
  IC50: 90 nM
Rattus norvegicus [5]
  Activity: inactive
[6]
  concentration at 4 h: 170 ng/mL

## Cc1cc(C)cc(Nc2cnccc2NS(=O)(=O)C(F)(F)F)c1
[7]
  IC50: 4110 nM
[8]
  IC50: 1040 nM

## O=S(=O)(Nc1ccncc1Nc1ccc(O)c(Br)c1)C(F)(F)F
[12]
  Retention_time: 10.34 min
[7]
  IC50: 4210 nM
[8]
  IC50: > 100000 nM

## O=S(=O)(Nc1ccncc1Nc1cccc(I)c1)C(F)(F)F
[7]
  IC50: 1930 nM
[8]
  IC50: 260 nM

## CCCC(C)C1(CC)C(=O)NC(=O)NC1=O (centres undefined) [PENTOBARBITAL]
[12]
  Retention_time: 11.71 min

## Cc1ccc(-c2cc(C(F)(F)F)nn2-c2ccc(S(N)(=O)=O)cc2)cc1 [CELECOXIB]
[1]
  concentration at 4 h: 1130 ng/mL
Rattus norvegicus [9]
  inhibition in vivo at 5 mg/kg: 15.7%
Rattus norvegicus [2]; route intraperitoneal
  Activity: 23.05%
Rattus norvegicus [3]; route intraperitoneal
  Activity: 28.87%
Rattus norvegicus [10]
  inhibition in vivo at 20 mg/kg: 42.1%
Rattus norvegicus [11]
  inhibition in vivo at 10 mg/kg: 27.3%
[4]
  concentration at 4 h: 2680 ng/mL
Rattus norvegicus [5]; route intraperitoneal
  Activity: 24.02%
[6]
  concentration at 4 h: 620 ng/mL

## O=S(=O)(Nc1ccncc1Nc1ccc(F)cc1)C(F)(F)F
[7]
  IC50: 270 nM
[8]
  IC50: 300 nM

## CS(=O)(=O)Nc1ccc([N+](=O)[O-])cc1Oc1ccccc1 [NIMESULIDE]
[1]
  concentration at 4 h: 41300 ng/mL
Rattus norvegicus [9]
  inhibition in vivo at 5 mg/kg: 31.1%
Rattus norvegicus [2]; route intraperitoneal
  Activity: 52.05%
Rattus norvegicus [3]; route intraperitoneal
  Activity: 72.93%
Rattus norvegicus [11]
  inhibition in vivo at 10 mg/kg: 48.4%
[4]
  concentration at 4 h: 75200 ng/mL
Rattus norvegicus [5]; route intraperitoneal
  Activity: 23.08%
[6]
  concentration at 4 h: 17000 ng/mL

## O=S(=O)(Nc1ccncc1Nc1ccc(O)cc1)C(F)(F)F
[7]
  IC50: 18100 nM
[8]
  IC50: > 100000 nM

## CS(=O)(=O)Nc1ccncc1Nc1cccc(F)c1
[7]
  IC50: 1370 nM
[8]
  IC50: 10000 nM

## O=S(=O)(Nc1ccncc1Nc1ccc(Cl)cc1)C(F)(F)F
[1]
  concentration at 4 h: 9490 ng/mL
Rattus norvegicus [2]; route intraperitoneal
  Activity: 54.44%
Rattus norvegicus [3]; route intraperitoneal
  Activity: 72.47%
[4]
  concentration at 4 h: 27300 ng/mL
Rattus norvegicus [5]; route intraperitoneal
  Activity: 44.15%
[6]
  concentration at 4 h: 4610 ng/mL

## Cc1cc(Nc2cnccc2NS(=O)(=O)C(F)(F)F)ccc1Br
[7]
  IC50: 2320 nM
[8]
  IC50: 300 nM

## Cc1cc(C)cc(Nc2cnccc2NS(C)(=O)=O)c1
[7]
  IC50: 14900 nM
[8]
  IC50: > 100000 nM

## N#Cc1cccc(Nc2cnccc2NS(=O)(=O)C(F)(F)F)c1
[7]
  IC50: 6650 nM
[8]
  IC50: 36200 nM

## Cc1ccc(Nc2cnccc2NS(=O)(=O)C(F)(F)F)cc1Cl
[7]
  IC50: 1470 nM
[8]
  IC50: 1960 nM
